Results reported in US20250059188A1, “ARYLSULPHONAMIDE COMPOUNDS” (Anaxis Pharma Pty Ltd, priority 2021, published 2025).

Legend:
[1] = test system: U937 human histiocytic leukemia cell line; test: Inhibition of TSQ induced necroptosis in U937 cells (CellTitre-Glo); conditions: Homo sapiens, U-937, TSQ cocktail (TNF, Smac mimetic, Q-VD-OPh), 48 hours, read-out: Inhibition of TSQ-induced necroptosis (IC50 cell-based assay)
Method in brief: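 U937 cells (20000/well) treated with compound (10-point, 1:3 from 36 μM, 0.3% DMSO) plus TSQ cocktail (hTNF-Fc 100 ng/ml, Smac mimetic 500 nM, Q-VD-OPh 10 μM), 48 h at 37 °C. Viability by CellTiter-Glo luminescence; IC50 from 4-parameter logistic fit. Counter screen: same cells without TSQ.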

mouse MLKL (full length) = mouse MLKL (full length) (Mus musculus (Mouse), UniProt Q9D2Y4); test: KINOMEscan binding assay, mouse MLKL (full length); conditions: equilibrium dissociation constant
Protocol: Binding affinity of the test compounds for human MLKL (full length), mouse MLKL (full length), human RIPK1 and human RIPK3 was determined using the KINOMEscan™ technology developed by DiscoverX (USA; http://www.discoverx.com). The assay was conducted according to manufacturer instructions.
Kinase assays. For most assays, kinase-tagged T7 phage strains were grown in parallel in 24-well blocks in an E. coli host derived from the BL21 strain. E. coli were grown to log-phase and infected with T7 phage from a frozen stock (multiplicity of infection=0.4) and incubated with shaking at 32° C. until lysis (90-150 minutes). The lysates were centrifuged (6,000×g) and filtered (0.2 μm) to remove cell debris. The remaining kinases were produced in HEK-293 cells and subsequently tagged with DNA for qPCR detection. […] The liganded beads were blocked with excess biotin and washed with blocking buffer (SeaBlock (Pierce), 1% BSA, 0.05% Tween 20, 1 mM DTT) to remove unbound ligand and to reduce non-specific phage binding. […] All reactions were performed in polypropylene 384-well plates in a final volume of 20 μL. […] The kinase concentration in the eluates was measured by qPCR.
An 11-point 3-fold serial dilution of each test compound was prepared in 100% DMSO at 100× final test concentration and subsequently diluted to 1× in the assay (final DMSO concentration=1%). Most Kos were determined using a compound top concentration=30,000 nM.
KD for each test compound was calculated with a standard dose-response curve using the Hill equation (equation (1)): […]
The Hill Slope was set to −1.
Curves were fitted using a non-linear least square fit with the Levenberg-Marquardt algorithm.

mouse MLKL (full length), sequence (Q9D2Y4 whole entry): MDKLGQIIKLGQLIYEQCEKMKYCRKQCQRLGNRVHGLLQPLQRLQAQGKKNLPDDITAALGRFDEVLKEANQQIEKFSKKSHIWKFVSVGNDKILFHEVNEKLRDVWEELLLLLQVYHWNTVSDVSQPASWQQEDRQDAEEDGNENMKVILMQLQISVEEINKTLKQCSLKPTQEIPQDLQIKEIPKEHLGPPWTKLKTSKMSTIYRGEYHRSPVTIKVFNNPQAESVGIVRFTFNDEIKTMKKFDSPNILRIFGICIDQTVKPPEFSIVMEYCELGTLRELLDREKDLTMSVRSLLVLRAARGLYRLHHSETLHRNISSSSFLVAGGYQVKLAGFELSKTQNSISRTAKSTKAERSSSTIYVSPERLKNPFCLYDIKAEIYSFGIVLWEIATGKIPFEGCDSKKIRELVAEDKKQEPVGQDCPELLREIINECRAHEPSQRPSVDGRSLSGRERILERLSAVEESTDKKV

Kd (mouse MLKL (full length)) [nM] | SMILES | IC50 [1] [nM]
< 1 | C[C@H](Oc1cc(-c2nn(C)c3c(-c4cnn(C5CCOCC5)c4)cnc(N)c23)ccc1NS(=O)(=O)C(F)F)c1ccc(F)cc1 [Compound 19, (S)-N-(4-(4-amino-1-methyl-7-(1-(tetrahydro-2H-pyran-4-yl)-1H-pyrazol-4-yl)-1H-pyrazolo[4,3-c]pyridin-3-yl)-2-(1-(4-fluorophenyl)ethoxy)phenyl)-1,1-difluoromethanesulfonamide] | < 10
 | COCC(Oc1cc(-c2nn(C)c3c(-c4cnn(C5CCN(C)CC5)c4)cnc(N)c23)ccc1NS(=O)(=O)C(F)F)c1ccc(F)cc1 (stereo not shown) [Compound 139, N-(4-(4-amino-1-methyl-7-(1-(1-methylpiperidin-4-yl)-1H-pyrazol-4-yl)-1H-pyrazolo[4,3-c]pyridin-3-yl)-2-(1-(4-fluorophenyl)-2-methoxyethoxy)phenyl)-1,1-difluoromethanesulfonamide] | 10 to 1000
 | C[C@H](Oc1cc(-c2nn(C)c3c(-c4ccc5c(cnn5C)c4)cnc(N)c23)ccc1NS(=O)(=O)C(F)F)c1ccc(F)cc1 [Compound 166, (S)-N-(4-(4-amino-1-methyl-7-(1-methyl-1H-indazol-5-yl)-1H-pyrazolo[4,3-c]pyridin-3-yl)-2-(1-(4-fluorophenyl)ethoxy)phenyl)-1,1-difluoromethanesulfonamide] | 10 to 1000
 | C[C@H](Oc1cc(-c2nn(C)c3c(C#CC4CCNCC4)cnc(N)c23)ccc1NS(=O)(=O)C(F)F)c1ccc(F)cc1 [Compound 79, (S)—N-(4-(4-amino-1-methyl-7-(piperidin-4-ylethynyl)-1H-pyrazolo[4,3-c]pyridin-3-yl)-2-(1-(4-fluorophenyl)ethoxy)phenyl)-1,1-difluoromethanesulfonamide] | 10 to 1000
 | C[C@H](Oc1cc(-c2nn(C)c3c(-c4cnn(C5(CC#N)COC5)c4)cnc(N)c23)ccc1NS(=O)(=O)C(F)F)c1ccc(F)cc1 [Compound 98, (S)-N-(4-(4-amino-7-(1-(3-(cyanomethyl)oxetan-3-yl)-1H-pyrazol-4-yl)-1-methyl-1H-pyrazolo[4,3-c]pyridin-3-yl)-2-(1-(4-fluorophenyl)ethoxy)phenyl)-1,1-difluoromethanesulfonamide] | 10 to 1000
 | C[C@H](Oc1cc(-c2nn(C)c3c(-c4cnn(C5CCN(C)C(C(F)(F)F)C5)c4)cnc(N)c23)ccc1NS(=O)(=O)C(F)F)c1ccc(F)cc1 (stereo partly drawn) [Compound 148, N-(4-(4-amino-1-methyl-7-(1-(1-methyl-2-(trifluoromethyl)piperidin-4-yl)-1H-pyrazol-4-yl)-1H-pyrazolo[4,3-c]pyridin-3-yl)-2-((S)-1-(4-fluorophenyl)ethoxy)phenyl)-1,1-difluoromethanesulfonamide] | < 10
< 1 | Cn1nc(-c2ccc(NS(=O)(=O)C(F)F)c(OCc3ccc(F)cc3)c2)c2c(N)ncc(-c3cnn(C4CCOCC4)c3)c21 [Compound 13, N-(4-(4-amino-1-methyl-7-(1-(tetrahydro-2H-pyran-4-yl)-1H-pyrazol-4-yl)-1H-pyrazolo[4,3-c]pyridin-3-yl)-2-((4-fluorobenzyl)oxy)phenyl)-1,1-difluoromethanesulfonamide] | 10 to 1000
 | COCCn1cc(-c2cnc(N)c3c(-c4ccc(NS(=O)(=O)C(F)F)c(O[C@@H](C)c5ccc(F)cc5)c4)nn(C)c23)cn1 [Compound 29, (S)-N-(4-(4-amino-7-(1-(2-methoxyethyl)-1H-pyrazol-4-yl)-1-methyl-1H-pyrazolo[4,3-c]pyridin-3-yl)-2-(1-(4-fluorophenyl)ethoxy)phenyl)-1,1-difluoromethanesulfonamide] | < 10
